Measured values as given in patent US20150105252A1, “SUBSTITUTED PYRAZOLES AS HERBICIDES” (E I DU PONT DE NEMOURS AND COMPANY, priority 2013, published 2015).

What was measured:
oilseed rape = assay: Test C postemergence; type: in vivo, Brassica napus
Outline: (§1)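 Pre- and postemergence greenhouse screen; vehicle was a non-phytotoxic solvent mix with surfactant. Preemergence: treatment applied right after sowing into loam and sand. Postemergence: treated at 1–4 leaves. Visual rating at 13–15 days, 100 = complete control.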

corn [1] = assay: Test A postemergence; type: in vivo, Zea mays
Outline: (§2)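 Growth medium: loam soil blended with sand. Preemergence treatment used a directed soil spray right after planting; postemergence treatment targeted seedlings at one to two leaves (2–10 cm height). Response was judged by eye relative to untreated plants about 10 days later on a 0–100 control scale.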

barnyardgrass [2] = assay: Test C preemergence; type: in vivo, Echinochloa crus-galli; details: for Barnyardgrass plant response rating: preemergence
Outline: as §1

oat, wild = assay: Test C postemergence; type: in vivo, Avena fatua
Outline: as §1

morningglory [3] = assay: Test A preemergence; type: in vivo, Ipomoea spp.; details: preemergence
Outline: as §2

pigweed = assay: Test C postemergence; type: in vivo, Amaranthus retroflexus
Outline: as §1

foxtail, giant = assay: Test A preemergence; type: in vivo, Setaria faberii; details: preemergence
Outline: as §2

galium = assay: Test C preemergence; type: in vivo, Galium aparine; details: for Galium plant response rating: preemergence
Outline: as §1

barnyardgrass [4] = assay: Test A postemergence; type: in vivo, Echinochloa crus-galli
Outline: as §2

barnyardgrass [5] = assay: Test C postemergence; type: in vivo, Echinochloa crus-galli
Outline: as §1

corn [6] = assay: Test A preemergence; type: in vivo, Zea mays; details: preemergence
Outline: as §2

lambsquarters = assay: Test C postemergence; type: in vivo, Chenopodium album
Outline: as §1

velvetleaf [7] = assay: Test A postemergence; type: in vivo, Abutilon theophrasti
Outline: as §2

chickweed = assay: Test C postemergence; type: in vivo, Stellaria media
Outline: as §1

morningglory [8] = assay: Test C postemergence; type: in vivo, Ipomoea coccinea
Outline: as §1

velvetleaf [9] = assay: Test C postemergence; type: in vivo, Abutilon theophrasti
Outline: as §1

[10] = Postemergence, 31 g ai/ha, visually evaluated after 13 to 15 days
[11] = postemergence, 62 g ai/ha, scale 0 to 100
[12] = postemergence, 250 g ai/ha, scale 0 to 100 (0 no effect, 100 complete control)
[13] = postemergence, 125 g ai/ha, scale 0 to 100, 0 no effect, 100 complete control
[14] = Postemergence, 500 g ai/ha, visual rating after approx. 10 days, 0 to 100 scale (0 no effect, 100 complete control)
[15] = postemergence, 125 g ai/ha, about 10 days, visual rating on 0 to 100 scale (0 no effect, 100 complete control)
[16] = 62 g ai/ha, scale 0 to 100 (0 no effect, 100 complete control), 13 to 15 days
[17] = 125 g ai/ha, scale 0 to 100, 0 is no effect, 100 is complete control
[18] = 125 g ai/ha, visual injury, 0 to 100 scale, approx. 10 days
[19] = 500 g ai/ha, visual injury after approx. 10 days, 0 to 100 scale (0 no effect, 100 complete control)

CCc1cc(C(=O)NCC(F)(F)F)nn1Cc1cc(C(F)(F)F)nn1C [Compound 108, 5-ethyl-1-[[1-methyl-3-(trifluoromethyl)-1H-pyrazole-5-yl]methyl]-N-(2,2,2-trifluoroethyl)-1H-pyrazole-3-carboxamide]
Plant response rating (scale of 0 to 100 where 0 is no effect and 100 is complete control), Oilseed Rape (oilseed rape; [10]): 50 | Oilseed Rape plant response rating (oilseed rape; [11]): 50 | Plant response rating, Oilseed Rape (oilseed rape; [12]): 55 | Plant response rating, Oilseed Rape (oilseed rape; [13]): 55 | Corn plant response rating (corn [1]; [14]): 100 | Corn plant response rating (corn [1]; [15]): 80 | Plant response rating (scale of 0 to 100), Barnyardgrass (barnyardgrass [2]; Preemergence, 250 g ai/ha): 100 | Barnyardgrass plant response rating (barnyardgrass [2]; 31 g ai/ha, scale 0 to 100 (0 no effect, 100 complete control), 13 to 15 days): 50 | Barnyardgrass plant response rating (barnyardgrass [2]; [16]): 100 | Barnyardgrass plant response rating (barnyardgrass [2]; [17]): 100 | Plant response rating (scale of 0 to 100 where 0 is no effect and 100 is complete control), Oat, Wild (oat, wild; [10]): 10 | Oat, Wild plant response rating (oat, wild; [11]): 10 | Plant response rating, Oat, Wild (oat, wild; [12]): 20 | Plant response rating, Oat, Wild (oat, wild; [13]): 15 | Morningglory plant response rating (morningglory [3]; [18]): 100 | Morningglory plant response rating (morningglory [3]; [19]): 100 | Plant response rating (scale of 0 to 100 where 0 is no effect and 100 is complete control), Pigweed (pigweed; [10]): 40 | Pigweed plant response rating (pigweed; [11]): 45 | Plant response rating, Pigweed (pigweed; [12]): 90 | Plant response rating, Pigweed (pigweed; [13]): 50 | Foxtail, Giant plant response rating (foxtail, giant; [18]): 100 | Foxtail, Giant plant response rating (foxtail, giant; [19]): 100 | Plant response rating (scale of 0 to 100), Galium (galium; Preemergence, 250 g ai/ha): 100 | Galium plant response rating (galium; 31 g ai/ha, visual rating, scale 0 to 100 (0 no effect, 100 complete control), 13 to 15 days): 85 | Galium plant response rating (galium; [16]): 100 | Galium plant response rating (galium; [17]): 100 | Barnyardgrass plant response rating (barnyardgrass [4]; [14]): 90 | Barnyardgrass plant response rating (barnyardgrass [4]; [15]): 90 | Plant response rating (scale of 0 to 100 where 0 is no effect and 100 is complete control), Barnyardgrass (barnyardgrass [5]; [10]): 0 | Barnyardgrass plant response rating (barnyardgrass [5]; [11]): 0 | Plant response rating, Barnyardgrass (barnyardgrass [5]; [12]): 35 | Plant response rating, Barnyardgrass (barnyardgrass [5]; [13]): 5 | Corn plant response rating (corn [6]; [18]): 30 | Corn plant response rating (corn [6]; [19]): 90 | Plant response rating (scale of 0 to 100 where 0 is no effect and 100 is complete control), Lambsquarters (lambsquarters; [10]): 60 | Lambsquarters plant response rating (lambsquarters; [11]): 60 | Plant response rating, Lambsquarters (lambsquarters; [12]): 85 | Plant response rating, Lambsquarters (lambsquarters; [13]): 80 | Velvetleaf plant response rating (velvetleaf [7]; [14]): 100 | Velvetleaf plant response rating (velvetleaf [7]; [15]): 60 | Plant response rating (scale of 0 to 100 where 0 is no effect and 100 is complete control), Chickweed (chickweed; [10]): 85 | Chickweed plant response rating (chickweed; [11]): 100 | Plant response rating, Chickweed (chickweed; [12]): 100 | Plant response rating, Chickweed (chickweed; [13]): 100 | Plant response rating (scale of 0 to 100 where 0 is no effect and 100 is complete control), Morningglory (morningglory [8]; [10]): 50 | Morningglory plant response rating (morningglory [8]; [11]): 50 | Plant response rating, Morningglory (morningglory [8]; [12]): 90 | Plant response rating, Morningglory (morningglory [8]; [13]): 80 | Plant response rating (scale of 0 to 100 where 0 is no effect and 100 is complete control), Velvetleaf (velvetleaf [9]; [10]): 5 | Velvetleaf plant response rating (velvetleaf [9]; [11]): 10 | Plant response rating, Velvetleaf (velvetleaf [9]; [12]): 40 | Plant response rating, Velvetleaf (velvetleaf [9]; [13]): 35
